{"source": "EPA's ToxValDB 9.5", "key": {"Mus musculus": {"system": "Mus musculus", "details": "for LC50 / LD50: acute; for LOAEL: subchronic"}, "Oryctolagus sp.": {"system": "Oryctolagus sp.", "details": "for LD50: dermal"}, "Rattus norvegicus [1]": {"system": "Rattus norvegicus", "details": "for LC50 / LD50: acute"}, "Canidae": {"system": "Canidae", "details": "chronic; duration: 1 years; oral; diet; M/F; Dog Other; hypertrophy of adrenal cortex (both sexes) hematological effects (males)"}, "Rattus norvegicus [2]": {"system": "Rattus norvegicus", "details": "for LOEL / NOEL: Hershberger; for LEL: uterotrophic, Active"}, "Rattus norvegicus [3]": {"system": "Rattus norvegicus", "details": "chronic, duration: 2 years, oral, diet, M/F"}, "Rattus norvegicus [4]": {"system": "Rattus norvegicus", "details": "short-term; duration: 28 days; oral; diet; M; Wistar; Body Weight Changes: Weight gain decrease + Food Consumption: decrease + Absolute Organ Weight: Thymus decrease + Relative Organ Weight: …"}, "[5]": {"details": "duration: 10 days, injection, subcutaneous, Wistar, active + Androgenic + androgenic"}, "[6]": {"details": "duration: 3 days, injection, subcutaneous"}, "[7]": {"details": "chronic, duration: 4 months, inhalation"}, "[8]": {"details": "chronic, duration: 104 weeks, oral, diet, CDA"}, "[9]": {"details": "subchronic, duration: 90 days, oral, gavage, CDA Sprague-Dawley"}, "[10]": {"details": "reduced body weight gain, erythrocyte count and hemoglobin level"}, "[11]": {"details": "duration: 5 days, oral, gavage, Sprague-Dawley, active + Androgenic + androgenic + advanced age of PPS, histopathology effects on reproductive tissues"}}, "note": "Several values for one entry are separate records, joined by “and”; a condition that tells them apart may be missing. Equal entries are not always repeated."}
{"smiles": "Cc1cc(C)cc(O)c1", "note": "[3,5-Dimethylphenol]", "values": [{"measurement": "LC50", "setting": "Mus musculus; oral", "value": 477, "unit": "mg/kg"}, {"measurement": "LC50", "setting": "Oryctolagus sp.; acute, oral", "value": 1310, "unit": "mg/kg"}, {"measurement": "LC50", "setting": "Rattus norvegicus [1]; oral", "value": 608, "unit": "mg/kg"}]}
{"smiles": "C[C@H]1[C@H](c2ccc(Cl)cc2)SC(=O)N1C(=O)NC1CCCCC1", "note": "[Hexythiazox]", "values": [{"measurement": "LEL", "setting": "Canidae", "value": 12.5, "unit": "mg/kg-day"}, {"measurement": "NOEL", "setting": "Canidae", "value": 2.5, "unit": "mg/kg-day"}]}
{"smiles": "CC[C@@H](C(C)C)[C@@H](O)[C@H](O)[C@@H](C)[C@H]1CC[C@H]2[C@@H]3COC(=O)[C@H]4C[C@H](O)[C@H](O)C[C@]4(C)[C@H]3CC[C@]12C", "note": "[28-Homobrassinolide]", "values": [{"measurement": "LOEL", "setting": "Rattus norvegicus [2]; [5]", "value": 4, "unit": "mg/kg-day"}, {"measurement": "NOEL", "setting": "Rattus norvegicus [2]; [5]", "value": 0.4, "unit": "mg/kg-day"}]}
{"smiles": "CCCOC(=O)c1ccc(O)cc1", "note": "[Propylparaben]", "values": [{"measurement": "LEL", "setting": "Rattus norvegicus [2]; [6]", "value": 65, "unit": "mg/kg-day"}]}
{"smiles": "C1CCNCC1", "note": "[Piperidine]", "values": [{"measurement": "LD50", "setting": "Mus musculus; oral, DD", "value": "536 mg/kg and 633 mg/kg"}, {"measurement": "LOAEL", "setting": "Oryctolagus sp.; [7]", "value": 0.01, "unit": "mg/L"}, {"measurement": "NOAEL", "setting": "Oryctolagus sp.; [7]", "value": 0.002, "unit": "mg/L"}, {"measurement": "LC50", "setting": "Rattus norvegicus [1]; inhalation", "value": "> 6970", "unit": "mg/m3"}, {"measurement": "LOAEL", "setting": "Rattus norvegicus [1]; [7]", "value": 0.01, "unit": "mg/L"}, {"measurement": "NOAEL", "setting": "Rattus norvegicus [1]; [7]", "value": 0.002, "unit": "mg/L"}, {"measurement": "NOAEL (% diet)", "setting": "Rattus norvegicus [1]; chronic, duration: 50 weeks, oral, drinking water, Sprague-Dawley", "value": 0.09}]}
{"smiles": "CCCCC(C#N)(Cn1cncn1)c1ccc(Cl)cc1", "note": "(configuration not stated) [Myclobutanil]", "values": [{"measurement": "LEL", "setting": "Rattus norvegicus [3]; testicular atrophy", "value": 9.84, "unit": "mg/kg-day"}, {"measurement": "NOEL", "setting": "Rattus norvegicus [3]; testicular atrophy", "value": 2.49, "unit": "mg/kg-day"}, {"measurement": "NOEL", "setting": "Rattus norvegicus [2]; duration: 10 days, oral, gavage, Sprague-Dawley, inactive + Negative + Negative + anti-androgenic + decrease in AST wt at 200 and serum testosterone 49% / increase in PPS at 400 and serum …", "value": 50, "unit": "mg/kg-day"}]}
{"smiles": "C=C[C@@]12CCc3cc(O)ccc3[C@H]1CC[C@@]1(C)[C@H]2CC[C@@H]1O", "note": "[8beta-Vinylestra-1,3,5(10)-triene-3,17beta-ol]", "values": [{"measurement": "LOEL", "setting": "Rattus norvegicus [2]; duration: 12 days, injection, subcutaneous, Wistar, active + Androgenic + androgenic", "value": 100, "unit": "mg/kg-day"}]}
{"smiles": "C=CF", "note": "[Vinyl fluoride]", "values": [{"measurement": "LC50", "setting": "Mus musculus; inhalation", "value": "1.3e+06", "unit": "mg/m3"}, {"measurement": "LOAEL", "setting": "Mus musculus; duration: 90 days, inhalation, Crl:CD-1 (ICR) BR", "value": 377, "unit": "mg/m3"}, {"measurement": "LOAEL", "setting": "Rattus norvegicus [1]; subchronic, duration: 90 days, inhalation, Crl:CDABR", "value": 377, "unit": "mg/m3"}]}
{"smiles": "C=C(C)C(=O)OCCN(C)C", "note": "[2-(Dimethylamino)ethyl methacrylate]", "values": [{"measurement": "LC50", "setting": "Mus musculus; inhalation", "value": 1.8, "unit": "µg/mL"}, {"measurement": "LD50", "setting": "Mus musculus; injection, intraperitoneal", "value": 25, "unit": "mg/kg"}, {"measurement": "LD50", "setting": "Oryctolagus sp.; acute", "value": "> 3000", "unit": "mg/kg"}, {"measurement": "LD50", "setting": "Rattus norvegicus [1]; dermal, Sprague-Dawley", "value": "> 2000", "unit": "mg/kg"}, {"measurement": "LC50", "setting": "Rattus norvegicus [1]; inhalation", "value": 0.62, "unit": "µg/mL"}, {"measurement": "LD50", "setting": "Rattus norvegicus [1]; oral, gavage, Crj:CD", "value": "> 2000", "unit": "mg/kg"}, {"measurement": "NOAEL", "setting": "Rattus norvegicus [1]; reproduction developmental, duration: 41 days, oral, gavage, Crj:CD, generation: F0", "value": 200, "unit": "mg/kg-day"}, {"measurement": "NOAEL", "setting": "Rattus norvegicus [1]; short-term, duration: 3 weeks, inhalation", "value": 643, "unit": "mg/m3"}, {"measurement": "NOAEL", "setting": "Rattus norvegicus [1]; subchronic, duration: 41 days, oral, gavage, Crj:CD", "value": 200, "unit": "mg/kg-day"}]}
{"smiles": "CC1(C)NC(=O)NC1=O", "note": "[5,5-Dimethylhydantoin]", "values": [{"measurement": "NOAEL", "setting": "Mus musculus; short-term, duration: 28 days, oral, diet, F, CD1", "value": 50000, "unit": "ppm"}, {"measurement": "LOAEL", "setting": "Mus musculus; duration: 13 weeks, oral, diet, CD1", "value": 9850, "unit": "mg/kg-day"}, {"measurement": "LD50", "setting": "Oryctolagus sp.; acute, New Zealand", "value": "> 20000", "unit": "mg/kg"}, {"measurement": "LD50", "setting": "Oryctolagus sp.; acute, occlusive, New Zealand", "value": "> 3000", "unit": "mg/kg"}, {"measurement": "NOAEL", "setting": "Oryctolagus sp.; developmental, duration: 13 days, oral, gavage, New Zealand", "value": 100, "unit": "mg/kg-day"}, {"measurement": "NOAEL", "setting": "Oryctolagus sp.; reproduction developmental, duration: 13 days, oral, gavage, F, New Zealand", "value": 500, "unit": "mg/kg-day"}, {"measurement": "LC50", "setting": "Rattus norvegicus [1]; inhalation", "value": "> 14.7", "unit": "µg/mL"}, {"measurement": "LD50", "setting": "Rattus norvegicus [1]; oral, gavage, Sprague-Dawley", "value": "> 5000", "unit": "mg/kg"}, {"measurement": "NOAEL", "setting": "Rattus norvegicus [1]; chronic, duration: 24 months, oral, diet, Crl:CDABR", "value": "> 1000", "unit": "mg/kg-day"}, {"measurement": "LOAEL", "setting": "Rattus norvegicus [1]; [8]", "value": "> 1000", "unit": "mg/kg-day"}, {"measurement": "NOAEL", "setting": "Rattus norvegicus [1]; [8]", "value": 1000, "unit": "mg/kg-day"}, {"measurement": "NOAEL", "setting": "Rattus norvegicus [1]; developmental, duration: 14 days, oral, gavage, Sprague-Dawley COBS CD", "value": "≤ 2000", "unit": "mg/kg-day"}, {"measurement": "NOAEL", "setting": "Rattus norvegicus [1]; developmental, oral, gavage, Crl:CD(SD) BR", "value": 250, "unit": "mg/kg-day"}, {"measurement": "NOAEL", "setting": "Rattus norvegicus [1]; reproduction developmental, duration: 10 weeks, oral, diet, CD, generation: F0", "value": 20000, "unit": "ppm"}, {"measurement": "NOAEL", "setting": "Rattus norvegicus [1]; reproduction developmental, duration: 10 weeks, oral, diet, CD, generation: F1", "value": 20000, "unit": "ppm"}, {"measurement": "NOAEL", "setting": "Rattus norvegicus [1]; reproduction developmental, oral, gavage, Crl:CD(SD) BR, generation: F0", "value": 1000, "unit": "mg/kg-day"}, {"measurement": "NOAEL", "setting": "Rattus norvegicus [1]; reproduction developmental, oral, gavage, F, Crl:CD(SD) BR", "value": 1000, "unit": "mg/kg-day"}, {"measurement": "NOAEL", "setting": "Rattus norvegicus [1]; subchronic, duration: 13 weeks, oral, gavage, Sprague-Dawley (CRl: CDBR)", "value": 1000, "unit": "mg/kg-day"}, {"measurement": "LOAEL", "setting": "Rattus norvegicus [1]; [9]", "value": 5000, "unit": "mg/kg-day"}, {"measurement": "NOAEL", "setting": "Rattus norvegicus [1]; [9]", "value": 2000, "unit": "mg/kg-day"}]}
{"smiles": "CC(C)(C)C1CCC(O)CC1", "note": "(configuration not stated) [4-tert-Butylcyclohexanol]", "values": [{"measurement": "LD50", "setting": "Mus musculus; injection, Intraperitoneal, CF1", "value": "≥ 50 mg/kg and ≤ 100 mg/kg"}, {"measurement": "LD50", "setting": "Oryctolagus sp.; acute", "value": "> 5000", "unit": "mg/kg"}, {"measurement": "LD50", "setting": "Rattus norvegicus [1]; oral", "value": 4200, "unit": "mg/kg"}, {"measurement": "LOAEL", "setting": "Rattus norvegicus [1]; short-term, duration: 28 days, oral, gavage, Wistar", "value": 150, "unit": "mg/kg-day"}]}
{"smiles": "CCC[CH2][Sn]([Cl])([CH2]CCC)[CH2]CCC", "note": "[Tributyltin chloride]", "values": [{"measurement": "NOAEL", "setting": "Rattus norvegicus [4]", "value": 5, "unit": "ppm"}, {"measurement": "LEL", "setting": "Rattus norvegicus [2]; duration: 0 days, oral, diet", "value": 125, "unit": "ppm"}]}
{"smiles": "COP(=S)(OC)Oc1ccc(SC)c(C)c1", "note": "[Fenthion]", "values": [{"measurement": "LOEL", "setting": "Rattus norvegicus [2]; duration: 7 days, oral, gavage, Fischer 344, active + Antiandrogenic + anti-androgenic", "value": 25, "unit": "mg/kg-day"}]}
{"smiles": "CC(C)(C)C(=O)C(Oc1ccc(Cl)cc1)n1cncn1", "note": "(configuration not stated) [Triadimefon]", "values": [{"measurement": "LEL", "setting": "Rattus norvegicus [3]; [10]", "value": 25, "unit": "mg/kg-day"}, {"measurement": "NOEL", "setting": "Rattus norvegicus [3]; [10]", "value": 2.5, "unit": "mg/kg-day"}, {"measurement": "NOEL", "setting": "Rattus norvegicus [2]; duration: 10 days, oral, gavage, Sprague-Dawley, inactive + Negative + Negative + both + decreased AGD, delayed PPS, decreased AST wt / inhibits CYP17 / increases liver wt 37% and …", "value": 25, "unit": "mg/kg-day"}]}
{"smiles": "C[C@]12CCC(=O)C=C1CC[C@@H]1[C@@H]2CC[C@@]2(C)[C@H]1CC[C@]2(C)O", "note": "[17-Methyltestosterone]", "values": [{"measurement": "LOEL", "setting": "Rattus norvegicus [2]; [11]", "value": "80 mg/kg-day and 100 mg/kg-day"}, {"measurement": "NOEL", "setting": "Rattus norvegicus [2]; [11]", "value": 20, "unit": "mg/kg-day"}, {"measurement": "LOEL", "setting": "Rattus norvegicus [2]; duration: 7 days, injection, subcutaneous, Sprague-Dawley, androgenic", "value": 0.16, "unit": "mg/kg-day"}, {"measurement": "LEL", "setting": "Rattus norvegicus [2]; [6]", "value": 10, "unit": "mg/kg-day"}, {"measurement": "LEL", "setting": "Rattus norvegicus [2]; duration: 4 days, injection, subcutaneous", "value": 0.5, "unit": "mg/kg-day"}, {"measurement": "LEL", "setting": "Rattus norvegicus [2]; duration: 14 days, oral", "value": 3, "unit": "mg"}]}
